From patent US20230226040A1, “COMBINATION THERAPY COMPRISING AN FGFR INHIBITOR AND A KRAS INHIBITOR” (Incyte Corporation, priority 2021, published 2023)
“And” between values parts separate entries of the source, which are not always exact repeats. Equal values may be shown once.

Key:
Assay in all cases: 5-day Cell Titer Glo viability and Bliss score
[1] = tested on: MiaPaca2 KRAS G12C resistant clone 11; assay type: cell-based; conditions: MIA-R clone 11, 5 day CTG
Procedure: (§1) For G12C resistant clone generation, MiaPaca2 parent cells were cultured with increasing concentrations of AMG510 (up to 1μM) over time. The viable cells were re-fed fresh media containing AMG510 weekly. Once the AMG510 resistant cells were growing at normal rates in the presence of 1μM AMG510, they were cloned by limiting dilution. Eight clones were selected for continued passage and further experiments.

[2] = tested on: MiaPaca2 KRAS G12C resistant clone 28; assay type: cell-based; conditions: 5-day CTG
Procedure: as §1

[3] = tested on: MiaPaca2 KRAS G12C resistant clone 7; assay type: cell-based; conditions: 5-day CTG; for % viability, Pemi 1 μM: Pemi alone
Procedure: as §1

[4] = tested on: MiaPaca2 cells
Procedure: For synergy experiments, cells were seeded in RPMI medium with 10% HI FBS at a density of 500 cells/well in Greiner, white, clear bottom, 384-well tissue culture treated plates containing 10x10 combination matrices of compound. Plates were incubated at 37° C., 5% CO2 for 5 days. On day 5, Cell Titer Glo reagent was added to the plates and ATP luminescence was detected using a Pherastar FSX reader. The synergy score for the combination effect was calculated using a Bliss score model where the Bliss score=Yab−(Ya+Yb−(YaYb))×100, where Ya and Yb are the monotherapies. Bliss scores >20 are strongly synergistic and a higher Bliss scores indicates a higher level of synergism.

[5] = Average, G12C i 111 nM + Pemi 1 μM

## CCN1C(=O)N(c2c(F)c(OC)cc(OC)c2F)Cc2cnc3[nH]c(CN4CCOCC4)cc3c21 [Pemigatinib, 3-(2,6-difluoro-3,5-dimethoxyphenyl)-1-ethyl-8-(morpholin-4-ylmethyl)-1,3,4,7-tetrahydro-2H-pyrrolo[3′,2′:5,6]pyrido[4,3-d]pyrimidin-2-one]
[1]; Pemi 1000 nM + KRAS G12C i 111.11 nM
  BLISS Score: 24.91
[1]; Pemi 1000 nM + KRAS G12C i 333.33 nM
  BLISS Score: 20.06
[1]; Pemi 1000 nM + KRAS G12C i 1000.00 nM
  BLISS Score: 21.43
[2]; G12C i 111 nM + Pemi 1 μM
  % viability, Together: 32.4%
  BLISS Score: 21.8
[2]; Pemi alone
  % viability, Pemi 1 μM: 78%
[3]; [5]
  % viability, Together: 54.6%
  BLISS Score: 15.0
[3]; Average
  % viability, Pemi 1 μM: 101.1%
[3]; G12C i 111 nM + Pemi 1 μM, single experiments
  % viability, Together: 63% and 53% and 47.7%
[3]; single experiments
  % viability, Pemi 1 μM: 104% and 106% and 93.4%
[4]; MIA PaCa2, Pemi 12 nM + KRAS G12C i 0.15 nM, 5 day CTG
  BLISS Score: −16.39
[4]; MIA PaCa2, Pemi 12 nM + KRAS G12C i 0.46 nM, 5 day CTG
  BLISS Score: −9.92
[4]; MIA PaCa2, Pemi 12 nM + KRAS G12C i 1.37 nM, 5 day CTG
  BLISS Score: −4.50
[4]; MIA PaCa2, Pemi 12 nM + KRAS G12C i 4.12 nM, 5 day CTG
  BLISS Score: −1.78
[4]; MIA PaCa2, Pemi 12 nM + KRAS G12C i 12.35 nM, 5 day CTG
  BLISS Score: −1.91
[4]; MIA PaCa2, Pemi 12 nM + KRAS G12C i 37.04 nM, 5 day CTG
  BLISS Score: 1.33
[4]; MIA PaCa2, Pemi 12 nM + KRAS G12C i 111.11 nM, 5 day CTG
  BLISS Score: 0.06
[4]; MIA PaCa2, Pemi 12 nM + KRAS G12C i 333.33 nM, 5 day CTG
  BLISS Score: 0.73
[4]; MIA PaCa2, Pemi 12 nM + KRAS G12C i 1000.00 nM, 5 day CTG
  BLISS Score: 0.29
[4]; MIA PaCa2, Pemi 37 nM + KRAS G12C i 0.15 nM, 5 day CTG
  BLISS Score: −13.53
[4]; MIA PaCa2, Pemi 37 nM + KRAS G12C i 0.46 nM, 5 day CTG
  BLISS Score: −5.08
[4]; MIA PaCa2, Pemi 37 nM + KRAS G12C i 1.37 nM, 5 day CTG
  BLISS Score: 6.72
[4]; MIA PaCa2, Pemi 37 nM + KRAS G12C i 4.12 nM, 5 day CTG
  BLISS Score: 4.25
[4]; MIA PaCa2, Pemi 37 nM + KRAS G12C i 12.35 nM, 5 day CTG
  BLISS Score: 3.06
[4]; MIA PaCa2, Pemi 37 nM + KRAS G12C i 37.04 nM, 5 day CTG
  BLISS Score: 5.01
[4]; MIA PaCa2, Pemi 37 nM + KRAS G12C i 111.11 nM, 5 day CTG
  BLISS Score: 3.10
[4]; MIA PaCa2, Pemi 37 nM + KRAS G12C i 333.33 nM, 5 day CTG
  BLISS Score: 2.88
[4]; MIA PaCa2, Pemi 37 nM + KRAS G12C i 1000.00 nM, 5 day CTG
  BLISS Score: 2.69
[4]; MIA PaCa2, Pemi 111 nM + KRAS G12C i 0.15 nM, 5 day CTG
  BLISS Score: −10.62
[4]; MIA PaCa2, Pemi 111 nM + KRAS G12C i 0.46 nM, 5 day CTG
  BLISS Score: −7.15
[4]; MIA PaCa2, Pemi 111 nM + KRAS G12C i 1.37 nM, 5 day CTG
  BLISS Score: 9.38
[4]; MIA PaCa2, Pemi 111 nM + KRAS G12C i 4.12 nM, 5 day CTG
  BLISS Score: 4.70
[4]; MIA PaCa2, Pemi 111 nM + KRAS G12C i 12.35 nM, 5 day CTG
  BLISS Score: 4.83
[4]; MIA PaCa2, Pemi 111 nM + KRAS G12C i 37.04 nM, 5 day CTG
  BLISS Score: 6.56
[4]; MIA PaCa2, Pemi 111 nM + KRAS G12C i 111.11 nM, 5 day CTG
  BLISS Score: 4.31
[4]; MIA PaCa2, Pemi 111 nM + KRAS G12C i 333.33 nM, 5 day CTG
  BLISS Score: 3.66
[4]; MIA PaCa2, Pemi 111 nM + KRAS G12C i 1000.00 nM, 5 day CTG
  BLISS Score: 4.56
[4]; MIA PaCa2, Pemi 333 nM + KRAS G12C i 0.15 nM, 5 day CTG
  BLISS Score: −12.96
[4]; MIA PaCa2, Pemi 333 nM + KRAS G12C i 0.46 nM, 5 day CTG
  BLISS Score: −5.77
[4]; MIA PaCa2, Pemi 333 nM + KRAS G12C i 1.37 nM, 5 day CTG
  BLISS Score: 11.10
[4]; MIA PaCa2, Pemi 333 nM + KRAS G12C i 4.12 nM, 5 day CTG
  BLISS Score: 7.47
[4]; MIA PaCa2, Pemi 333 nM + KRAS G12C i 12.35 nM, 5 day CTG
  BLISS Score: 3.76
[4]; MIA PaCa2, Pemi 333 nM + KRAS G12C i 37.04 nM, 5 day CTG
  BLISS Score: 6.27
[4]; MIA PaCa2, Pemi 333 nM + KRAS G12C i 111.11 nM, 5 day CTG
  BLISS Score: 4.88
[4]; MIA PaCa2, Pemi 333 nM + KRAS G12C i 333.33 nM, 5 day CTG
  BLISS Score: 3.97
[4]; MIA PaCa2, Pemi 333 nM + KRAS G12C i 1000.00 nM, 5 day CTG
  BLISS Score: 2.38
[4]; MIA PaCa2, Pemi 1000 nM + KRAS G12C i 0.15 nM, 5 day CTG
  BLISS Score: −10.95
[4]; MIA PaCa2, Pemi 1000 nM + KRAS G12C i 0.46 nM, 5 day CTG
  BLISS Score: −5.74
[4]; MIA PaCa2, Pemi 1000 nM + KRAS G12C i 1.37 nM, 5 day CTG
  BLISS Score: 3.46
[4]; MIA PaCa2, Pemi 1000 nM + KRAS G12C i 4.12 nM, 5 day CTG
  BLISS Score: 6.59
[4]; MIA PaCa2, Pemi 1000 nM + KRAS G12C i 12.35 nM, 5 day CTG
  BLISS Score: 2.84
[4]; MIA PaCa2, Pemi 1000 nM + KRAS G12C i 37.04 nM, 5 day CTG
  BLISS Score: 4.32
[4]; MIA PaCa2, Pemi 1000 nM + KRAS G12C i 111.11 nM, 5 day CTG
  BLISS Score: 4.62
[4]; MIA PaCa2, Pemi 1000 nM + KRAS G12C i 333.33 nM, 5 day CTG
  BLISS Score: 3.71
[4]; MIA PaCa2, Pemi 1000 nM + KRAS G12C i 1000.00 nM, 5 day CTG
  BLISS Score: 4.32
[4]; MIAPACA2, Average, G12C i 111 nM + Pemi 1 μM, 5-day CTG
  BLISS Score: 6.3
[4]; MIAPACA2, G12C i 111 nM + Pemi 1 μM, 5-day CTG, single experiments
  BLISS Score: 8.8 and 5.6 and 4.6
